This passage reports Kd results from publication doi:10.1101/572578v1 (biorxiv, 2019).

Holding throughout (assay): intrinsic fluorescence quenching titration
Type in all cases: binding

In assay [1] the target is COMMD1 (Homo sapiens, UniProt Q8N668, K167E/K173E).
In assay [2] the target is COMMD1 (Homo sapiens, UniProt Q8N668, T174M).
For assay [3], the target named is COMMD1 (Homo sapiens, UniProt Q8N668).
Sequence of COMMD1 (Homo sapiens, UniProt Q8N668) (Q8N668 whole entry): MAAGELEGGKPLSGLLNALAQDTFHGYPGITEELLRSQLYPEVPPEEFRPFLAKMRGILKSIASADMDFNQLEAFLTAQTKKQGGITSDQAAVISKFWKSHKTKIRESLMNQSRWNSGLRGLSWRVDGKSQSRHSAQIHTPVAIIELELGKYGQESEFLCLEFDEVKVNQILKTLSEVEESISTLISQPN

Sequence of COMMD1 (Homo sapiens, UniProt Q8N668, K167E/K173E) (Q8N668 whole entry K167E/K173E): as the sequence (Q8N668 whole entry) above, with K167E, K173E counted along it
Sequence of COMMD1 (Homo sapiens, UniProt Q8N668, T174M) (Q8N668 whole entry T174M): as the sequence (Q8N668 whole entry) above, with T174M counted along it

Consider `CCCCCC(=O)OC[C@H](COP(=O)(O)O[C@@H]1[C@H](O)[C@H](O)[C@@H](OP(=O)(O)O)[C@H](OP(=O)(O)O)[C@H]1O)OC(=O)CCCCC` [PtdIns(4,5)P2], for which the figures for the Kd in assay [1], in assay [2] and in assay [3] were 284 nM, 62.5 nM and 40.4 nM, respectively.
